Laboratory results: PMC9490236, “Accurate de novo design of membrane-traversing macrocycles” (Cell, 2022)

Conditions: PAMPA

SMILES | PAMPA_Papp_Avg | PAMPA_R1 | PAMPA_R3
CC(C)[C@@H]1C(=O)N[C@@H](Cc2ccccc2)C(=O)N2CCC[C@H]2C(=O)N(C)[C@H](Cc2ccccc2)C(=O)N[C@H](C)C(=O)N2CCC[C@H]2C(=O)N1C (single isomer, unassigned) [Design D6.8.p2, *DPHE DALA PRO *DVAL PHE PRO] | 1.77e-06 cm/s | 1.92e-06 cm/s | 1.94e-06 cm/s
CC(C)C[C@H]1C(=O)N2CCC[C@@H]2C(=O)N[C@@H](Cc2ccccc2)C(=O)N2CCC[C@H]2C(=O)N[C@H](C(C)C)C(=O)N[C@H](Cc2ccccc2)C(=O)N1C (single isomer, unassigned) [Design D6.9.p2, DVAL DPHE *LEU DPRO PHE PRO] | 6.77e-06 cm/s | 6.03e-06 cm/s | 8.48e-06 cm/s
CC(C)C[C@H]1NC(=O)[C@H]2CCCN2C(=O)[C@@H]2CCCN2C(=O)[C@@H](Cc2ccccc2)NC(=O)[C@@H](C(C)C)NC(=O)[C@H](CC(C)C)N(C)C(=O)[C@@H](Cc2ccccc2)NC1=O (single isomer, unassigned) [Design D7.7.p2, PRO DPRO DLEU DPHE *LEU DVAL DPHE] | 9.06e-06 cm/s | 7.93e-06 cm/s | 1.17e-05 cm/s
CC[C@H](C)[C@@H]1NC(=O)[C@H](Cc2ccccc2)NC(=O)[C@H]2CCCN2C(=O)[C@H]([C@@H](C)CC)NC(=O)[C@H](C(C)C)NC(=O)[C@@H](C)NC(=O)[C@H]2CCCN2C1=O (single isomer, unassigned) [Design D7.8.p2, VAL ILE DPRO PHE ILE DPRO DALA] | 4.92e-06 cm/s | 4.52e-06 cm/s | 5.64e-06 cm/s
CC(C)C[C@H]1NC(=O)[C@@H]2CCCN2C(=O)[C@H]2CCCN2C(=O)[C@H](C(C)C)NC(=O)[C@@H](CC(C)C)NC(=O)[C@@H]2CCCN2C(=O)[C@H]2CCCN2C(=O)[C@H](C(C)C)NC1=O (single isomer, unassigned) [Design D8.12.p2, DLEU VAL DPRO PRO DLEU VAL DPRO PRO] | 2.00E-07 | 1.77E-07 | 2.25E-07
CC(C)C[C@@H]1NC(=O)[C@@H](C(C)C)NC(=O)[C@H](CC(C)C)N(C)C(=O)[C@H]2CCCN2C(=O)[C@@H](C(C)C)NC(=O)[C@H]2CCCN2C(=O)[C@@H](C(C)C)NC(=O)[C@@H](Cc2ccccc2)N(C)C(=O)[C@H](CC(C)C)N(C)C1=O (single isomer, unassigned) [Design D9.8.p1, *LEU DVAL LEU *LEU *DPHE DVAL DPRO DVAL DPRO] | 5.72E-06 | 5.56E-06 | 6.18E-06
CC(C)C[C@@H]1NC(=O)[C@@H](C(C)C)NC(=O)[C@H](CC(C)C)N(C)C(=O)[C@H]2CCCN2C(=O)[C@@H](C(C)C)NC(=O)[C@H]2CCCN2C(=O)[C@@H](C(C)C)NC(=O)[C@@H](Cc2ccccc2)N(C)C(=O)[C@H](CC(C)C)N(C)C1=O (single isomer, unassigned) [Design D9.8.p2, *LEU DVAL LEU *LEU *DPHE DVAL DPRO DVAL DPRO] | 9.35E-07 | 1.16E-06 | 8.61E-07
CC(C)C[C@@H]1C(=O)N(C)[C@@H](Cc2ccccc2)C(=O)N[C@@H](C(C)C)C(=O)N2CCC[C@H]2C(=O)NCC(=O)N2CCC[C@H]2C(=O)N(C)[C@H](CC(C)C)C(=O)N[C@@H](C(C)C)C(=O)N[C@H](CC(C)C)C(=O)N1C (single isomer, unassigned) [Design D9.43.p1, *DLEU VAL DLEU *DLEU *PHE VAL PRO GLY PRO] | 9.46E-07 | 8.93E-07 | 5.40E-07
CC(C)C[C@@H]1C(=O)N(C)[C@@H](Cc2ccccc2)C(=O)N[C@@H](C(C)C)C(=O)N2CCC[C@H]2C(=O)NCC(=O)N2CCC[C@H]2C(=O)N(C)[C@H](CC(C)C)C(=O)N[C@@H](C(C)C)C(=O)N[C@H](CC(C)C)C(=O)N1C (single isomer, unassigned) [Design D9.43.p2, *DLEU VAL DLEU *DLEU *PHE VAL PRO GLY PRO] | 3.30E-06 | 3.34E-06 | 3.77E-06
